The values that follow come from patent publication US5573748A, “Radiolabeled technetium chelates for use in renal function determinations” (University of Utah Research Foundation, priority 1994, dated 1996).

The nature of data set [1]: Biodistribution in normal mice after intravenous injection (renal uptake). The format is in vivo. Here is the method: Tc-99m-MAGGG was administered simultaneously with I-131 OIH (as a reference standard) to six mice in two groups. Each mouse was injected intravenously with 0.1 milliliters of a preparation containing 0.5 microcuries of Tc-99m-MAGGG and 0.2 microcuries of I-131 OIH, and then placed into a metabolic cage capable of collecting excreted urine.
Ten minutes after injection, each mouse's urethra was ligated and the mouse was sacrificed by chloroform vapor; various samples were then taken to determine biodistribution of radiolabeled material. The results of these samples are shown in Table I. Similar measurements, shown in Table II, were taken on the second group of mice 120 minutes after injection.

A short description of data set [2]: Renal excretion in humans (normal volunteers). It counts as in vivo. Here is the method: The renal excretion of Tc-99m-MAGGG in humans was obtained based upon experiments on normal volunteers. For purposes of comparison, tests were also conducted using I-131 OIH either immediately before or after the study using Tc-99m-MAGGG.
In Example 6, the Tc-99m-MAGGG used was prepared with stannous reduction similar to the procedure set forth in Example 2, with glucoheptonate being used as an intermediate exchange ligand. In Example 7, dithionite was used as a reducing agent instead of using stannous reduction. Both examples provided Tc-99m-MAGGG having the same major peak on a HPLC column.
In both examples, the subject was injected with a dosage containing about 15 millicuries of Tc-99m-MAGGG. The comparative tests utilizing I-131 OIH involved administration of about 300 microcuries of I-131 OIH. In both instances, imaging of the kidneys ureters, and blood pool was conducted for a period of about 30 minutes, following which the count rate in the bladder was measured.
Thereafter, the bladder was voided, and an additional image was taken to detect the presence of residual radioactivity in order to allow determination of the percent of urine radioactivity at 30 minutes. Measurements were also taken at 3 hours.

For data set [3] the following is noted: cited from earlier work.
The nature of data set [4]: Biodistribution in probenicid-treated mice (inhibited renal tubular transport). It counts as in vivo. Conditions: probenicid-treated mice (50 mg/kg), 10 minutes after injection. The protocol:
In order to test the biodistribution of Tc-99m-MAGGG in mice having inhibited renal tubular transport, six mice were injected with a solution of probenicid at the rate of 50 milligrams of probenicid per kilogram of body weight. Ten minutes later, each mouse was injected with 0.1 milliliters of a solution containing 0.5 microcuries of Tc-99m-MAGGG and 0.2 microcuries of I-131 OIH. After an additional ten minutes, each mouse was sacrificed and various samples taken to determine biodistribution of radiolabeled material.

With “Tc-99m-mercapoacetylglycylglycylalanine [Tc-99m-MAGG-Alanine]”, the “level in the urine relative to corresponding level of I-131 OIH” value in data set [1] (10 minutes) is listed as 106.4%. Besides, in data set [1] (10 minutes after injection), the Blood is 2.6 percentage of radioactive agen, the Intestine was 1.6 percentage of radioactive agen, the Kidneys is 5.2 percentage of radioactive agen and the Liver was 2.6 percentage of radioactive agen. Moreover, in data set [1] (10 minutes after injection), the Stomach result is on record as “.2 percentage of radioactive agen” and the Urine is listed as 75.1 percentage of radioactive agen. Moreover, in data set [1] (120 minutes), the “level in the urine relative to corresponding level of I-131 OIH” value was 102.2%. In addition, in data set [1] (120 minutes after injection), the Blood entry is listed as “.2 percentage of radioactive agen”, the Intestine is 2.2 percentage of radioactive agen, the Kidneys result is “.3 percentage of radioactive agen” and the Liver entry was “.1 percentage of radioactive agen”. Also, in data set [1] (120 minutes after injection), the Stomach result is listed as “.2 percentage of radioactive agen” and the Urine was 96.0 percentage of radioactive agen.

Regarding `O=C(O)CNC(=O)c1ccccc1[131I]` [I-131 OIH, I-131 ortho-iodohippurate, reference compound], the “urine radioactivity (renal excretion)” value in data set [2] (30 minutes) is recorded as 65.5 ± 6.3 percentage of radioactive agen. Moreover, the “urine radioactivity (renal excretion)” value in data set [2] (3 hours) is on record as 93.5 ± 3.2 percentage of radioactive agen. Further, in data set [3] (in vivo), the renal extraction efficiency was 65%-80. Also, in data set [1] (10 minutes after injection), the Blood is reported as 4.1 percentage of radioactive agen, the Intestine was 1.0 percentage of radioactive agen, the Kidneys is 2.2 percentage of radioactive agen and the Liver is given as 1.8 percentage of radioactive agen. Further, in data set [1] (10 minutes after injection), the Stomach is recorded as 0.5 percentage of radioactive agen and the Urine is 74.4 percentage of radioactive agen. Moreover, in data set [1] (120 minutes after injection), the Blood is recorded as 0.14 percentage of radioactive agen, the Intestine is 0.16 percentage of radioactive agen, the Kidneys is reported as 0.06 percentage of radioactive agen and the Liver was 0.11 percentage of radioactive agen. In data set [1] (120 minutes after injection), the Stomach is on record as 0.98 percentage of radioactive agen and the Urine is 96.0 percentage of radioactive agen. Further, in data set [4], the Blood is 7.0 percentage of radioactive agen, the Intestine was 2.0 percentage of radioactive agen, the Kidneys is recorded as 3.6 percentage of radioactive agen and the Liver was 3.7 percentage of radioactive agen. Further, in data set [4], the Stomach is on record as 0.75 percentage of radioactive agen and the Urine is on record as 59.2 percentage of radioactive agen.

For the compound “Tc-99m-N,N'-bis(mercaptoacetyl)-2,3-diaminopropanoate [Tc-99m-CO2 -DADS-B]”, the “removal by the kidneys compared with Tc-99m-CO2-DADS-A isomer” value in data set [3] (in vivo) was “far less efficiently removed by the kidneys”.

As to “Tc-99m-N,N'-bis(mercaptoacetyl)-2,3-diaminopropanoate [Tc-99m-CO2 -DADS-A]”, the “excreted less effectively than I-131 OIH” value in data set [3] (in vivo) is reported as about 20%.

Consider `Nc1ccc(C(=O)NCC(=O)O)cc1` [PAH, para-aminohippuric acid], for which, in data set [3] (in vivo), the “fraction in the blood removed by the kidneys” value is given as about 90% and the “fraction removed from the plasma by active secretion into the tubules” value is given as about 70%.

As to “Tc-99m diethylenetriaminepentaacetic acid [Tc-99m-DTPA]”, in data set [3] (glomerular filtration only), the maximum extraction efficiency is listed as 20-25%.

Take “Tc-99m-mercaptoacetylglycylglycylglycine [Tc-99m-MAGGG]”: the “urine radioactivity (renal excretion)” value in data set [2] (30 minutes) is 71.8 ± 4.2 percentage of radioactive agen. In addition, in data set [2] (3 hours), the “urine radioactivity (renal excretion)” value was 98.6 ± 1.6 percentage of radioactive agen. The “level in the urine relative to corresponding level of I-131 OIH” value in data set [1] (10 minutes) is on record as 107.3%. Besides, in data set [1] (10 minutes after injection), the Blood was 2.6 percentage of radioactive agen, the Intestine is 1.1 percentage of radioactive agen, the Kidneys is 3.5 percentage of radioactive agen and the Liver is on record as 2.9 percentage of radioactive agen. Further, in data set [1] (10 minutes after injection), the Stomach is 0.1 percentage of radioactive agen and the Urine is 79.9 percentage of radioactive agen. In addition, in data set [1] (120 minutes), the “level in the urine relative to corresponding level of I-131 OIH” value was 102.6%. Further, in data set [1] (120 minutes after injection), the Blood is listed as 0.03 percentage of radioactive agen, the Intestine is 1.2 percentage of radioactive agen, the Kidneys is 0.06 percentage of radioactive agen and the Liver is given as 0.08 percentage of radioactive agen. For the same compound, in data set [1] (120 minutes after injection), the Stomach was 0.02 percentage of radioactive agen and the Urine is recorded as 98.5 percentage of radioactive agen. Moreover, in data set [4], the Blood is given as 6.0 percentage of radioactive agen, the Intestine is on record as 1.6 percentage of radioactive agen, the Kidneys is recorded as 5.4 percentage of radioactive agen and the Liver is given as 5.9 percentage of radioactive agen. Besides, in data set [4], the Stomach was 0.24 percentage of radioactive agen and the Urine is recorded as 64.7 percentage of radioactive agen.

As to “Tc-99m-mercaptoacetylglycylglycylglycylglycine [Tc-99m-MAGGGG]”, the “level in the urine relative to corresponding level of I-131 OIH” value in data set [1] (10 minutes) is 86.7%. Besides, in data set [1] (10 minutes after injection), the Blood was 2.7 percentage of radioactive agen, the Intestine is 10.3 percentage of radioactive agen, the Kidneys is 3.3 percentage of radioactive agen and the Liver is listed as 9.9 percentage of radioactive agen. In data set [1] (10 minutes after injection), the Stomach entry is recorded as “.2 percentage of radioactive agen” and the Urine is 58.4 percentage of radioactive agen. Besides, the “level in the urine relative to corresponding level of I-131 OIH” value in data set [1] (120 minutes) amounted to 87.6%. Besides, in data set [1] (120 minutes after injection), the Blood result is on record as “.04 percentage of radioactive agen”, the Intestine is on record as 16.0 percentage of radioactive agen, the Kidneys entry is reported as “.2 percentage of radioactive agen” and the Liver is on record as 1.1 percentage of radioactive agen. In addition, in data set [1] (120 minutes after injection), the Stomach entry is listed as “.05 percentage of radioactive agen” and the Urine is 82.5 percentage of radioactive agen.
